Experimental data as given in patent US9694016B2 (Novartis AG, priority 2013, dated 2017).
Read-outs that look alike come from different tables or passages of the source.

Molecular target: b-Raf (V600E) (Homo sapiens (Human), UniProt P15056, V600E)
Conditions: read-out: b-Raf IC-50, AlphaScreen
[1] = 60 min pre-incubation, 3 hours reaction
[2] = 60 min pre-incubation, reaction 3 hours at room temperature

Chain of b-Raf (V600E) (P15056 whole entry V600E): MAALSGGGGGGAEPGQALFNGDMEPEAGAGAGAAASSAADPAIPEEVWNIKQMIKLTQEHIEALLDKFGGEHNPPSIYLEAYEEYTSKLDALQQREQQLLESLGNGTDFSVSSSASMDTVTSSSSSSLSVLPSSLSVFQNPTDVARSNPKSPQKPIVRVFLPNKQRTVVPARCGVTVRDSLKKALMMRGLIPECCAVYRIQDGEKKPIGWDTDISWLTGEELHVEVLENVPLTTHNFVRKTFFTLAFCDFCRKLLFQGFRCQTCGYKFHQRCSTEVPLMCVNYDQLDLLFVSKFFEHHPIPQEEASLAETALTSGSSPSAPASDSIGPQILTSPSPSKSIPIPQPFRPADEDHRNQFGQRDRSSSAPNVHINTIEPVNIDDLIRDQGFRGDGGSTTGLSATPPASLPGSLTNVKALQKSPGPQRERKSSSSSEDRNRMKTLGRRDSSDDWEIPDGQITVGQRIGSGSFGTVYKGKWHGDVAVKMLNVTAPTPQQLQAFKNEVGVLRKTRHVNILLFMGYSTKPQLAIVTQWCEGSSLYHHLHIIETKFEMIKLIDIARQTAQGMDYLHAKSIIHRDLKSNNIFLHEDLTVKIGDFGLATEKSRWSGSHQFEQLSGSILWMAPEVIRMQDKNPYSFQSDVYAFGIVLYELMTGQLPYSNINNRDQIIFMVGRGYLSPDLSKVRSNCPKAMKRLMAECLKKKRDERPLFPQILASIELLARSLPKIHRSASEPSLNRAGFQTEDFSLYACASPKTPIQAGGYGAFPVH

IC50 [1] [nM] | IC50 [2] [nM] | SMILES | further results
20 | – | Cc1ncc(NC(=O)c2cccc(C(F)(F)F)c2)cc1-c1cc(N2CCOCC2)nc(N2CCNCC2)n1 [Example 775, N-(6-methyl-5-(6-morpholino-2-(piperazin-1-yl)pyrimidin-4-yl)pyridin-3-yl)-3-(trifluoromethyl)benzamide] | –
– | 2.78 | Cc1ncc(NC(=O)c2cc(C(C)(F)F)ccn2)cc1-c1cnc(OCCO)c(N2CCOCC2)c1 [Example 974, 4-(1,1-difluoroethyl)-N-(6′-(2-hydroxyethoxy)-2-methyl-5-morpholino-[3,3′-bipyridin]-5-yl)picolinamide] | –
3.7 | – | Cc1ccc(NC(=O)c2ccnc(C(C)(F)F)c2)cc1-c1cc(N2CCOC[C@H]2C)n(C)c(=O)c1 [Example 523, (R)-2-(1,1-difluoroethyl)-N-(4-methyl-3-(1-methyl-6-(3-methylmorpholino)-2-oxo-1,2-dihydropyridin-4-yl)phenyl)isonicotinamide] | –
– | 1.81 | CCOc1cc(-c2cc(NC(=O)c3ccnc(C(C)(F)F)c3)cnc2C)cc(N2CCOCC2)n1 [Example 1143, 2-(1,1-difluoroethyl)-N-(2′-ethoxy-2-methyl-6′-morpholino-[3,4′-bipyridin]-5-yl)isonicotinamide] | –
– | – | Cc1ncc(NC(=O)c2cnnc(C3CC3)c2)cc1-c1cnc(N(C)C)c(N2CCOCC2)c1 [Example 271, 6-cyclopropyl-N-(6′-(dimethylamino)-2-methyl-5′-morpholino-[3,3′-bipyridin]-5-yl)pyridazine-4-carboxamide] | IC50 (Table 2, 3 hours reaction): 0.7 nM
1.8 | – | Cc1ccc(NC(=O)c2ccnc(C(C)(C)F)c2)cc1-c1cc(N2CCOCC2)n(C)c(=O)c1 [Example 479, 2-(2-fluoropropan-2-yl)-N-(4-methyl-3-(1-methyl-6-morpholino-2-oxo-1,2-dihydropyridin-4-yl)phenyl)isonicotinamide] | –
1.5 | – | Cc1ncc(NC(=O)c2ccnc(C(C)(F)F)c2)cc1-c1cc(N2CCOCC2)n2nccc2n1 [Example 799, 2-(1,1-difluoroethyl)-N-(6-methyl-5-(7-morpholinopyrazolo[1,5-a]pyrimidin-5-yl)pyridin-3-yl)isonicotinamide] | –
2.1 | – | CCC(F)(F)c1cc(C(=O)Nc2ccc(C)c(-c3cc(N4CCOCC4)c(OC)nn3)c2)ccn1 [Example 549, 2-(1,1-difluoropropyl)-N-(3-(6-methoxy-5-morpholinopyridazin-3-yl)-4-methylphenyl)isonicotinamide] | –
– | 3.89 | Cc1ncc(NC(=O)c2cnnc(C3(C#N)CC3)c2)cc1-c1cnc(OC2CCOCC2)c(N2CCOCC2)c1 [Example 944, 6-(1-cyanocyclopropyl)-N-(2-methyl-5′-morpholino-6′-((tetrahydro-2H-pyran-4-yl)oxy)-[3,3′-bipyridin]-5-yl)pyridazine-4-carboxamide] | –
6.7 | – | Cc1ccc(NC(=O)c2ccnc(C(C)(C)F)c2)cc1-c1cc(N2CCOC(C)(C)C2)c(=O)n(C)n1 [Example 665, N-(3-(5-(2,2-dimethylmorpholino)-1-methyl-6-oxo-1,6-dihydropyridazin-3-yl)-4-methylphenyl)-2-(2-fluoropropan-2-yl)isonicotinamide] | –
– | – | Cc1ncc(NC(=O)c2ccnc(C(C)(C)F)c2)cc1-c1cnc(N(C)C)c(N2CCOCC2)c1 [Example 268, N-(6′-(dimethylamino)-2-methyl-5-morpholino-[3,3′-bipyridin]-5-yl)-2-(2-fluoropropan-2-yl)isonicotinamide] | IC50 (Table 2, 3 hours reaction): 1.6 nM
1.7 | – | Cc1ccc(NC(=O)c2ccnc(C(C)(C)O)c2)cc1-c1cc(N2CCOCC2)c2nccn2n1 [Example 841, 2-(2-hydroxypropan-2-yl)-N-(4-methyl-3-(8 morpholinoimidazo[1,2-b]pyridazin-6-yl)phenyl)isonicotinamide] | –
– | 2.25 | Cc1ncc(NC(=O)c2ccnc(C(C)(F)F)c2)cc1-c1cc(N2CCOCC2)c(OC(C)C)nn1 [Example 912, 2-(1,1-difluoroethyl)-N-(5-(6-isopropoxy-5-morpholinopyridazin-3-yl)-6-methylpyridin-3-yl)isonicotinamide] | –
– | 12.9 | Cc1ncc(NC(=O)c2ccnc(C(C)(F)F)c2)cc1-c1cc(N2CCOCC2)nc(N2CC(O)C2)c1 [Example 1080, 2-(1,1-difluoroethyl)-N-(2′-(3-hydroxyazetidin-1-yl)-2-methyl-6′-morpholino-[3,4′-bipyridin]-5-yl)isonicotinamide] | –
– | 1.05 | Cc1ccc(NC(=O)c2ccnc(C(C)(F)F)c2)cc1-c1cc(N2CCOCC2)c(S(C)(=O)=O)nn1 [Example 929, 2-(1,1-difluoroethyl)-N-(4-methyl-3-(6-(methylsulfonyl)-5-morpholinopyridazin-3-yl)phenyl)isonicotinamide] | –
9 | – | CCNc1nc(-c2cc(NC(=O)c3cccc(C(C)(C)C#N)c3)cnc2C)cc(N2CCOCC2)n1 [Example 726, 3-(2-cyanopropan-2-yl)-N-(5-(2-(ethylamino)-6-morpholinopyrimidin-4-yl)-6-methylpyridin-3-yl)benzamide] | –

IC50 [1] [nM] | IC50 [2] [nM] | SMILES | further results
3.3 | – | CCNc1nc(-c2cc(NC(=O)c3ccnc(C(F)F)c3)cnc2C)cc(N2CCOCC2)n1 [Example 721, 2-(difluoromethyl)-N-(5-(2-(ethylamino)-6-morpholinopyrimidin-4-yl)-6-methylpyridin-3-yl)isonicotinamide] | –
3.8 | – | Cc1ccc(NC(=O)c2ccnc(C(C)(F)F)c2)cc1-c1cc(N2CCOC[C@@H]2C)n(C)c(=O)c1 [Example 525, (S)-2-(1,1-difluoroethyl)-N-(4-methyl-3-(1-methyl-6-(3-methylmorpholino)-2-oxo-1,2-dihydropyridin-4-yl)phenyl)isonicotinamide] | –
– | – | Cc1ccc(C(=O)Nc2cccc(C(F)(F)F)c2)cc1-c1cc(N2CCOCC2)c(=O)n(C)c1 [Example 137, 4-methyl-3-(1-methyl-5-morpholino-6-oxo-1,6-dihydropyridin-3-yl)-N-(3-(trifluoromethyl)phenyl)benzamide] | IC50 (Table 2, 3 hours reaction): 7.1 nM
– | 3.17 | Cc1ccc(NC(=O)c2cc(C(C)(C)C#N)ccn2)cc1-c1cc(N2CCOCC2)n(C)c(=O)c1 [Example 900, 4-(2-cyanopropan-2-yl)-N-(4-methyl-3-(1-methyl-6-morpholino-2-oxo-1,2-dihydropyridin-4-yl)phenyl)picolinamide] | –
– | 2.34 | Cc1ncc(NC(=O)c2cccc(C(F)(F)F)c2)cc1-c1cc(N2CCOCC2)nc(N2CCC(O)C2)c1 (stereo not drawn) [Example 1131, N-(2′-(3-hydroxypyrrolidin-1-yl)-2-methyl-6′-morpholino-[3,4′-bipyridin]-5-yl)-3-(trifluoromethyl)benzamide] | –
– | – | CCn1cc(-c2cc(NC(=O)c3ccnc(C(C)(C)C#N)c3)cnc2C)cc(N2CCOCC2)c1=O [Example 332, 2-(2-cyanopropan-2-yl)-N-(1′-ethyl-2-methyl-5′-morpholino-6′-oxo-1′,6′-dihydro-[3,3′-bipyridin]-5-yl)isonicotinamide] | IC50 (Table 2, 3 hours reaction): 23.2 nM
– | 2.8 | Cc1ccc(NC(=O)c2ccnc(C(C)(C)C#N)c2)cc1-c1nc(N2CCOCC2)c2[nH]ccc2n1 [Example 863, 2-(2-cyanopropan-2-yl)-N-(4-methyl-3-(4-morpholino-5H-pyrrolo[3,2-d]pyrimidin-2-yl)phenyl)isonicotinamide] | –
– | – | Cc1ncc(NC(=O)c2ccnc(C(C)C)c2)cc1-c1cc(N2CCOCC2)c(=O)n(C)c1 [Example 400, N-(1′,2-dimethyl-5′-morpholino-6′-oxo-1′,6′-dihydro-[3,3′-bipyridin]-5-yl)-2-isopropylisonicotinamide] | IC50 (Table 2, 3 hours reaction): 35.1 nM
– | – | Cc1ccc(NC(=O)c2ccnc(C(C)(C)F)c2)cc1-c1cc(N2CCOCC2)c(=O)n(C)c1 [Example 355, 2-(2-fluoropropan-2-yl)-N-(4-methyl-3-(1-methyl-5-morpholino-6-oxo-1,6-dihydropyridin-3-yl)phenyl)isonicotinamide] | IC50 (Table 2, 3 hours reaction): 2.5 nM
– | 3.31 | Cc1ncc(NC(=O)c2ccnc(C(F)F)c2)cc1-c1cc(N2CCOCC2)nc(N2CCOCC2)c1 [Example 1122, 2-(difluoromethyl)-N-(2-methyl-2′,6′-dimorpholino-[3,4′-bipyridin]-5-yl)isonicotinamide] | –
– | 3.8 | Cc1ccc(NC(=O)c2ccnc(C(F)(F)F)c2)cc1-c1cc(N2CCOCC2)c2nccn2c1 [Example 849, N-(4-methyl-3-(8-morpholinoimidazo[1,2-a]pyridin-6-yl)phenyl)-2-(trifluoromethyl)isonicotinamide] | –
– | – | CCOc1ncc(-c2cc(NC(=O)c3cnnc(C(C)(C)C#N)c3)cnc2C)cc1N1CCOCC1 [Example 287, 6-(2-cyanopropan-2-yl)-N-(6′-ethoxy-2-methyl-5′-morpholino-[3,3′-bipyridin]-5-yl)pyridazine-4-carboxamide] | IC50 (Table 2, 3 hours reaction): 16.5 nM
– | 1.32 | Cc1ccc(NC(=O)c2ccnc(C(C)(C)C#N)c2)cc1-c1cc(N2CCOCC2)nc(N2CCOCC2)c1 [Example 1113, 2-(2-cyanopropan-2-yl)-N-(3-(2,6-dimorpholinopyridin-4-yl)-4-methylphenyl)isonicotinamide] | –
– | – | Cc1ncc(NC(=O)c2ccnc(C(F)(F)F)c2)cc1-c1cc(N2CCOCC2)c(=O)n(C)c1 [Example 390, N-(1′,2-dimethyl-5′-morpholino-6′-oxo-1′,6′-dihydro-[3,3′-bipyridin]-5-yl)-2-(trifluoromethyl)isonicotinamide] | IC50 (Table 2, 3 hours reaction): 5.4 nM
– | – | Cc1ncc(NC(=O)c2ccnc(C(C)C)c2)cc1-c1cnc(OC2CCOCC2)c(N2CCOCC2)c1 [Example 313, 2-isopropyl-N-(2-methyl-5′-morpholino-6′-((tetrahydro-2H-pyran-4-yl)oxy)-[3,3′-bipyridin]-5-yl)isonicotinamide] | IC50 (Table 2, 3 hours reaction): 7 nM
– | 12.7 | Cc1ccc(NC(=O)c2ccnc(C(C)(C)F)c2)cc1-c1cc(NC[C@@H](C)O)nc(N2CCOCC2)n1 [Example 1025, (R)-2-(2-fluoropropan-2-yl)-N-(3-(6-((2-hydroxypropyl)amino)-2-morpholinopyrimidin-4-yl)-4-methylphenyl)isonicotinamide] | –

SMILES | IC50 [1] [nM] | IC50 [2] [nM] | further results
Cc1ccc(NC(=O)c2ccnc(C(C)(F)F)c2)cc1-c1cc(N2C3CCC2COC3)c(=O)n(C)n1 [Example 670, N-(3-(5-(3-oxa-8-azabicyclo[3.2.1]octan-8-yl)-1-methyl-6-oxo-1,6-dihydropyridazin-3-yl)-4-methylphenyl)-2-(1,1-difluoroethyl)isonicotinamide] | 2.8 | – | –
